Laboratory results from paper PMC4900628, “Critical Evaluation of P2X7 Receptor Antagonists in Selected Seizure Models” (PLoS ONE, 2016).

Tested on: PTZ-induced generalized clonic seizures
Test: Pentylenetetrazol seizure threshold test (PTZ-T)
Format: in vivo
Conditions: for Cases of death (within 30 min) / Latency to the first gen. Clonus / Latency to the first gen. clonus (% of control) / latency to the onset of the first clonic seizures at higher doses / Latency to the first gen. Clonus (% control): mice; for Cases of death (within 30 min): n=12; for Latency to the first gen. Clonus: mean ± SEM; for latency to the onset of the first clonic seizures at higher doses: compounds alone, PTZ 87 mg/kg s.c.
Description: Unrestrained mice, placed in separate full-view Plexiglas cages, were injected with the convulsant drug PTZ, a non-competitive GABAA receptor antagonist, at a dose of 87 mg/kg s.c. in the neck and the appearance of the first generalized clonus (repeated clonic seizures of the fore- and hindlimbs lasting ≥3 s with an accompanying loss of righting reflex) was recorded during individual observation for 30 min (see [69]). […] Group sizes of 12 mice were used in all experiments. Control groups, which received vehicle, were tested together with the compound-treated group on the same experimental day. The number of animals in the group with a generalized clonic seizure and the latency time to its onset were analysed for statistical significance. In the absence of seizures within 30 min, the latency was taken as 1800 s.
For the seizure tests (MES-T, PTZ-T, PTZ-kindling), BBG and TIIAS was dissolved in polyethylene glycol (PEG BioUltra, 400, Sigma-Aldrich), diluted to 20% with aqua (aqua ad iniectabilia, Braun, Melsungen, Germany). AFC was solubilized in ≥97% N,N-dimethylacetamide (DMA, Sigma-Aldrich), vortexed and diluted with 45% 2-hydroxypropyl-ß-cyclodextrin (ß-CD, Sigma-Aldrich) (final ratio of the vehicle 1:9). JNJ-47965567 was solubilized in two equivalents of 1N HCl, vortexed and sonicated (until the compound was mostly diluted) and then 30% of sulfobutylether-ß-cyclodextrin (SBE-ß-CD, Toronto Res. Chemicals, Toronto, Canada) was slowly added. The pH was adjusted with 1N NaOH (similar amount of NaOH as HCl), all with continuous stirring. PTZ was dissolved in 0.9% NaCl-solution, carbamazepine, ethosuximide and Ca-valproate were administered in a 2% (w/v) suspension of hydroxyethylcellulose. The drug solutions or suspensions were prepared immediately before use; all doses refer to the salts. Animals in the control group received equivalent volumes of the vehicle (in mice always 10 ml/kg, in rats 1 ml/kg [JNJ], 3 ml/kg [AFC] or 4 ml/kg [BBG, TIIAS], depending on the solubility of the different compounds). Doses and peak time effects were selected on the basis of effective doses from corresponding in vivo studies in the literature: BBG (e.g.), tanshinone IIA (e.g.) and from manufacturer’s experimental data: AFC, JNJ (see, [80]).
Data were analysed using SigmaPlot (vers. 12.0, Systat Software, Erkrath, Germany) and SPSS (IBM SPSS Statistics 20, Ehningen, Germany), respectively. Results are expressed as mean ± SEM. In the fluorometric Ca^2+ assays, concentration-response curves were fitted by using a 4-parameter logistic function (Hill slope, Emin, Emax, IC50). […] In the MES-T, the current intensity inducing tonic hindlimb extensions in 50% of the mice (CC50 values with confidence limits for 95% probability) and the statistical significance was calculated using Probit analysis (SPSS). In the case of multiple comparisons between different groups α-correction was performed so that only differences with a P value of < 0.01 were considered significant. In the PTZ-T, the number of animals in the group with clonic seizures and the latency time were analysed using Fisher's exact probability test and the Mann-Whitney rank sum test, respectively. For multiple comparisons of the latency time a one-way ANOVA with the Holm-Sidak post hoc test was used. The influence of AFC on the plasma and brain concentrations of the antiepileptic drugs was statistical compared using the same procedure. In the PTZ-kindling model, the mean seizure stage within a group was calculated in relation to the number of PTZ-injections. Statistical comparison between vehicle- and compound-treated groups in this model was performed with two-way repeated measures ANOVA, followed by the Holm-Sidak post hoc test. The mean number of PTZ-injections needed to produce the first generalized seizure (≥ stage 3 convulsions) in the vehicle- versus compound-treated groups was statistically compared using a Mann-Whitney rank sum test.

[1] = 50 mg/kg i.p. 45 min before PTZ 87 mg/kg s.c.
[2] = series JNJ-47965567 15 mg/kg and/or ethosuximide 100 mg/kg i.p. 30 min before PTZ 87 mg/kg s.c.
[3] = series JNJ-47965567 30 mg/kg and/or ethosuximide 100 mg/kg i.p. 30 min before PTZ 87 mg/kg s.c.
[4] = series AFC-5128 25 mg/kg and/or ethosuximide 100 mg/kg, all i.p. 30 min before PTZ 87 mg/kg s.c.
[5] = series AFC-5128 50 mg/kg and/or ethosuximide 100 mg/kg, all i.p. 30 min before PTZ 87 mg/kg s.c.
[6] = series JNJ-47965567 15 mg/kg and/or ethosuximide 100 mg/kg i.p. 30 min before PTZ, control 4.74 ± 0.64 min
[7] = series JNJ-47965567 15 mg/kg and/or ethosuximide 100 mg/kg, all i.p. 30 min before PTZ 87 mg/kg s.c.
[8] = series JNJ-47965567 30 mg/kg and/or ethosuximide 100 mg/kg i.p. 30 min before PTZ, control 6.14 ± 1.34 min
[9] = series JNJ-47965567 30 mg/kg and/or ethosuximide 100 mg/kg, all i.p. 30 min before PTZ 87 mg/kg s.c.
[10] = 15 mg/kg i.p. 30 min before PTZ 87 mg/kg s.c.
[11] = 30 mg/kg i.p. 30 min before PTZ 87 mg/kg s.c.
[12] = 30 mg/kg i.p. 45 min before PTZ 87 mg/kg s.c.

CCOc1ccc(Nc2ccc(/C(=C3C=C/C(=[N+](/CC)Cc4cccc(S(=O)(=O)[O-])c4)C=C/3C)c3ccc(N(CC)Cc4cccc(S(=O)(=O)O)c4)cc3C)cc2)cc1 [Brilliant Blue G]
# of mice/ with seizure [1]: 12/10 | Cases of death (within 30 min) [1]: 2 | Latency to the first gen. Clonus (50 mg/kg i.p. 45 min before PTZ 87 mg/kg s.c., P < 0.05): 13.91 ± 2.38 min | Latency to the first gen. clonus (% of control) (50 mg/kg i.p. 45 min before PTZ 87 mg/kg s.c., vehicle 6.77 ± 2.23 min): 205.5 ± 35.2% | latency to the onset of the first clonic seizures at higher doses: tended to increase the latency

CCC1(C)CC(=O)NC1=O (stereo not shown) [Ethosuximide, ethosuximide]
Cases of death (within 30 min) (series AFC-5128 25 mg/kg and/or ethosuximide 100 mg/kg i.p. 30 min before PTZ 87 mg/kg s.c.): 1 | Cases of death (within 30 min) (series AFC-5128 50 mg/kg and/or ethosuximide 100 mg/kg i.p. 30 min before PTZ 87 mg/kg s.c.): 1 | Cases of death (within 30 min) [2]: 0 | Cases of death (within 30 min) [3]: 1 | Latency to the first gen. Clonus (% control) (series AFC-5128 25 mg/kg and/or ethosuximide 100 mg/kg i.p. 30 min before PTZ, control 4.53 ± 0.56 min): 312.6 ± 65.8% | Latency to the first gen. Clonus [4]: 14.16 ± 2.98 min | Latency to the first gen. Clonus (% control) (series AFC-5128 50 mg/kg and/or ethosuximide 100 mg/kg i.p. 30 min before PTZ, control 10.83 ± 2.67 min): 200.6 ± 27.0% | Latency to the first gen. Clonus [5]: 21.72 ± 3.03 min | Latency to the first gen. Clonus (% control) [6]: 244.3 ± 75.3% | Latency to the first gen. Clonus [7]: 11.58 ± 3.57 min | Latency to the first gen. Clonus (% control) [8]: 209.0 ± 51.1% | Latency to the first gen. Clonus [9]: 12.83 ± 3.14 min | # of mice/ with seizures [4]: 12/8^+ | # of mice/ with seizures [5]: 12/7^+ | # of mice/ with seizures [7]: 12/8^+ | # of mice/ with seizures [9]: 12/8^+

O=C(NCC1(N2CCN(c3ccccc3)CC2)CCOCC1)c1cccnc1Sc1ccccc1 [JNJ-47965567, N-[[4-(4-phenyl-piperazin-1-yl)tetrahydro-2H-pyran-4-yl]-methyl]-2-(phenyl-thio) nicotinamide]
# of mice/ with seizure [10]: 12/12 | # of mice/ with seizure [11]: 12/10 | Cases of death (within 30 min) [10]: 2 | Cases of death (within 30 min) [11]: 1 | Cases of death (within 30 min) [2]: 3 | Cases of death (within 30 min) [3]: 1 | Latency to the first gen. Clonus [10]: 7.31 ± 2.19 min | Latency to the first gen. clonus (% of control) (15 mg/kg i.p. 30 min before PTZ 87 mg/kg s.c., vehicle 6.94 ± 1.31 min): 105.3 ± 31.6% | Latency to the first gen. Clonus [11]: 13.66 ± 2.94 min | Latency to the first gen. clonus (% of control) (30 mg/kg i.p. 30 min before PTZ 87 mg/kg s.c., vehicle 7.13 ± 1.49 min): 191.6 ± 41.2% | latency to the onset of the first clonic seizures at higher doses: tended to increase the latency | Latency to the first gen. Clonus (% control) [6]: 109.4 ± 25.1% | Latency to the first gen. Clonus [7]: 5.19 ± 1.19 min | Latency to the first gen. Clonus (% control) [8]: 153.4 ± 47.1% | Latency to the first gen. Clonus [9]: 9.42 ± 2.89 min | # of mice/ with seizures [7]: 12/12 | # of mice/ with seizures [9]: 12/10

Cc1c(S(=O)(=O)[O-])oc2c1C(=O)C(=O)c1c-2ccc2c1CCCC2(C)C.[Na+] [Tanshinone TIIAS, tanshinone IIS sulfonic sodium]
# of mice/ with seizure [12]: 12/11 | Cases of death (within 30 min) [12]: 0 | Latency to the first gen. Clonus [12]: 10.08 ± 2.64 min | Latency to the first gen. clonus (% of control) (30 mg/kg i.p. 45 min before PTZ 87 mg/kg s.c., vehicle 5.00 ± 1.04 min): 201.6 ± 52.8% | latency to the onset of the first clonic seizures at higher doses: tended to increase the latency
